# According to paper PMC9974481, “Structure of SpoT reveals evolutionary tuning of catalysis via conformational constraint” (Nature Chemical Biology, 2022):
# Key:
# [1] = target: T1, SpoTAb (full-length A. baumannii SpoT) (Acinetobacter baumannii, UniProt A0A0D5YCY1); experiment: X-ray crystallography, […] Å; type: binding; details: crystal soaked with 20 mM ppGpp at 4 °C; Mn2+ in hydrolase active site; PDB entry is 7QPR or 7QPS, not assigned in text
# T1 construct: gene ABUW_0309; full-length, domains HD, pseudo-SYNTH, Core, TGS, HEL, ZFD, RRM; pET28b His-TEV tag cleaved, E. coli BL21(DE3); monomer, theoretical 80 kDa; locus tag belongs to AB5075, expression gene amplified from AB19606; PDB entries not assigned in text (one is the metal-free NTD)
# [2] = target: T1, SpoTAb (full-length A. baumannii SpoT); experiment: 3H-ppGpp hydrolysis, TLC and scintillation counting; type: biochemical; details: 1 mM MnCl2, 5 mM Mg2+, HEPES:Polymix pH 7.5, 37 °C, 10-600 μM substrate; labelled compound
structure (smiles),measurement,setting,value
Nc1nc2c(ncn2[C@@H]2O[C@H](COP(=O)(O)OP(=O)(O)O)[C@@H](OP(=O)(O)OP(=O)(O)O)[C@H]2O)c(=O)[nH]1 [ppGpp],"X-ray crystallography, 2.5 Å",[1],X-ray structure of full-length catalytically active SpoTAb bound to ppGpp
same,KM,[2],SpoTAb Michaelis constant (KM) and maximum reaction velocity (Vmax) of ^3H-ppGpp hydrolysis were determined
